Earlier results as cited in patent US4639511A, “Des-19-leucine-calcitonin analogs” (Armour Pharmaceutical Company, priority 1985, dated 1987).
Positions of bridges follow the written chain, without caps; N, C: chain ends. No end group written: not given here.

How the values were obtained:
[1] = literature values, Monikawa et al.
[2] = test system: serum calcium concentration; settings: standard used in the rat assay

## (1,7-α-L-aminosuberic acid)eel calcitonin
[1]
  hypocalcemic potency: about 3400 IU/mg.

## eel calcitonin (CSNLSTCVLGKLSQELHKLQTYPRTDVGAGTP-NH2; disulfide 1-7; ends not checked; UniProt P01262 1-32, looked up) [synthetic eel calcitonin, synthetic eel calcitonin from Monikawa et al]
[1]
  hypocalcemic potency: around 4300 IU/mg.

## salmon calcitonin [standard salmon calcitonin]
[2]
  potency of the standard salmon calcitonin, independently determined: greater than 4,000 IU/mg
